The target of one test is T1, CCKBR (Homo sapiens, UniProt P32239).
T1 construct: purchased Promega (in-house HiBiT-GPCR construct library, NanoBRET)
T1 sequence (P32239 1-447): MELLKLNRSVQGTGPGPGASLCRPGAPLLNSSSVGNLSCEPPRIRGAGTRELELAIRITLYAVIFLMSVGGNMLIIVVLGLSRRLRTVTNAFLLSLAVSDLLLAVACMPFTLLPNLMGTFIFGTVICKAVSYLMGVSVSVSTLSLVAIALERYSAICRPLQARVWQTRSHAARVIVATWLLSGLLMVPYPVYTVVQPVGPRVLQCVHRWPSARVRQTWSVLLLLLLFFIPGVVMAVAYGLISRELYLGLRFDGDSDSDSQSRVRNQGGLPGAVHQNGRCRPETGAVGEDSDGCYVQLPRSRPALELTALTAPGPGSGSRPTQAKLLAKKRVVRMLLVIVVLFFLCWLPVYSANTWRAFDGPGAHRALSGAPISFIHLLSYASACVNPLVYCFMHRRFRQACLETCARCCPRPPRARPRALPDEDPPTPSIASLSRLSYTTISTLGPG
Kind of test: NanoBRET screen HiBiT-CCKBR in HEK293. Type of test: binding. The protocol: (§1) Each tracer candidate was screened across the entire library of HiBiT-GPCR constructs using NanoBRET as the detection modality. As depicted in Figure 4A, the specificity of interactions was evaluated through decrease in BRET due to competitive displacement of a bound tracer by excess parental compound. Each tracer was analyzed for binding to each HiBiT-GPCR fusion in the absence and in the presence of competing parental compound. Briefly, HEK293 cells were transfected with HiBiT-GPCR constructs diluted into promoterless DNA to reduce expression and maximize translocation to the cell surface. Each tracer candidate was then screened at concentrations of 1 μM and 0.1 μM across cells expressing these fusions. Cells were treated for 1.5 h with tracer either alone or in the presence of 20 μM competing parental compound (i.e., control). BRET was measured upon addition of purified LgBiT and subsequent complementation with HiBiT genetically fused to a GPCR. The specificity of interactions was assessed through a decrease in BRET signal due to competitive displacement of the bound tracer. To further gauge the robustness of these interactions, the fold response over the control (i.e., BRETtracer/BRETcontrol) was calculated. We chose a 1.5-fold response, which translates to ≥7-fold signal over noise as the minimal threshold required to score an interaction as positive. […]. Below we highlight the screening results obtained for our exemplary fluorescent tracers based on Clozapine, Amitriptyline and AZD1283.
(§2) HiBiT-GPCR DNA constructs were diluted in 10 mM Tris pH 8 to a final concentration of 0.01 μg/μL, arrayed in 96-well plates and stored at −20 °C. For transfection, HEK293 cells were suspended in Opti-MEM (without phenol red) supplemented with 2% fetal bovine serum (Seradigm) and 100 units/mL penicillin–streptomycin (Gibco) at a final concentration of 220,000 cells/mL and dispensed into white 96-well plates at 90 μL/well. Subsequent transfections and screens were carried using an Agilent Bravo Automated Liquid Handling Platform. First, the 96-well HiBiT DNA arrays were diluted 25-fold in Opti-MEM (without serum or phenol red) to a final concentration of 0.0004 μg/μL and 20 μL of the diluted DNAs were transferred into new 96-well plates. Next, promoterless carrier DNA (1 μg/μL) was diluted 25-fold (0.04 μg/μL) and then dispensed into the diluted arrays at 20 μL/well. Following brief mixing, Viafect transfection reagent (Promega) diluted 16-fold into Opti-MEM was dispensed into the plates at 40 μL/well. After mixing by pipetting, plates were incubated for 10 min on the pipetting station deck. The DNA-transfection reagent complexes were then added to plates containing cells. To facilitate the screen, 10 μL of DNA-transfection reagent complexes were added in duplicates to the top 4 and bottom 4 rows, resulting in two identical 48-well arrays per plate. Plates with transfected cells were incubated for 18–20 h at 37 °C/5% CO2. A screen of each tracer across the entire library using two different concentrations requires duplicate plates of transfected cells. Depending on the number of tracers being screened, transfections can be scaled up using the same ratios. The next day, for each tracer, four 20× screening solutions in tracer dilution buffer (Promega) were prepared: two duplicates at final concentration of 20 μM and two duplicates at a final concentration of 2 μM. A competing unmodified compound was added to one of each duplicate at a final concentration of 400 μM. The four resulting solutions were diluted 4-fold in Opti-MEM without serum or phenol red to generate 5× solutions (5 µM and 0.5 µM tracer +/− 100 μM competing compound). To screen the library, a BioTek MultiFlo FX liquid dispenser was used to dispense 22.5 µL of tracer solution to the top 4 rows and 22.5 µL tracer + competing compound solution to the 4 bottom rows. Plates were briefly mixed on an orbital shaker and incubated for 1.5 h at room temperature. […]
On the technique in general: Bioluminescence resonance energy transfer reports proximity on the nanometre scale.

Another test has as its target T2, HTR5A (Homo sapiens, UniProt P47898).
T2 construct: purchased Promega (in-house HiBiT-GPCR construct library, NanoBRET)
Kind of test: NanoBRET screen HiBiT-HTR5A in HEK293. Type of test: binding. The protocol: as §1, §2

T2 sequence (P47898 whole entry): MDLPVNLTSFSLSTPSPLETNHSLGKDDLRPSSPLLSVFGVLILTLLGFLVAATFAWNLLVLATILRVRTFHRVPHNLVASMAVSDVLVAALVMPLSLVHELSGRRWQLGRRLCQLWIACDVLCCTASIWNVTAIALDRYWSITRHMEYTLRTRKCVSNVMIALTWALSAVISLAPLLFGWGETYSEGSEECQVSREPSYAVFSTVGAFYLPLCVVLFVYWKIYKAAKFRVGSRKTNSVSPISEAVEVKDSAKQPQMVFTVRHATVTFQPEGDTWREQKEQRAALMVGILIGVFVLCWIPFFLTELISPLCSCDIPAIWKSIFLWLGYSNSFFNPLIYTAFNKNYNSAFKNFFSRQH

With `O=C(CCc1ccc2n1[B-](F)(F)[N+]1=C(c3ccc[nH]3)C=CC1=C2)NCc1ccc(C(=O)NCCOCCC(=O)N[C@@H]2CC[C@@]3(O)[C@H]4Cc5ccc(O)c6c5[C@@]3(CCN4CC3CC3)[C@H]2O6)cc1` [Naltrexone-3-NB590], the “NanoBRET Fold Response” value at CCKBR (CCKBR, tracer 0.1μM) amounted to 0.79; on CCKBR (CCKBR, tracer 1μM), 0.93; on HTR5A (HTR5A, tracer 0.1μM), 0.69; at HTR5A (HTR5A, tracer 1μM), 0.98.

On to `CN1CCN(C2=Nc3cc(Cl)ccc3N(CC(=O)NCCOCCOCCOCCOCCNC(=O)CCc3ccc4n3[B-](F)(F)[N+]3=C(c5ccc[nH]5)C=CC3=C4)c3ccccc32)CC1` [Clozapine-c-2-NB590], for which the “NanoBRET Fold Response” value at CCKBR (CCKBR, 0.1μM tracer) is given as 1.04; on CCKBR (CCKBR, 1μM tracer), 1.01; at HTR5A (HTR5A, 0.1μM tracer) it was 1.02; on HTR5A (HTR5A, 1μM tracer), 1.00.

On to `O=C(CCOCCOCCOCCOCCNC(=O)CCc1ccc2n1[B-](F)(F)[N+]1=C(c3ccc[nH]3)C=CC1=C2)NCCCN1CCN(C2=Nc3cc(Cl)ccc3Nc3ccccc32)CC1` [Clozapine-a-2-NB590], for which the “NanoBRET Fold Response” value on CCKBR (CCKBR, 0.1μM tracer) is recorded as 1.01; on CCKBR (CCKBR, 1μM tracer) it was 1.01; on HTR5A (HTR5A, 0.1μM tracer) it was 1.11; at HTR5A (HTR5A, 1μM tracer) it was 1.29.

On to `CCOC(=O)c1cc(C#N)c(N2CCC(C(=O)NS(=O)(=O)Cc3ccccc3/C=C/C(=O)NCCNC(=O)CCc3ccc4n3[B-](F)(F)[N+]3=C(c5ccc[nH]5)C=CC3=C4)CC2)nc1C` [AZD1283-1-NB590], for which the “NanoBRET Fold Response” value turned out to be 1.18 on CCKBR (CCKBR, 0.1μM); 1.10 on CCKBR (CCKBR, 1μM); 0.97 at HTR5A (HTR5A, 0.1μM); 1.04 at HTR5A (HTR5A, 1μM).

On to `COc1ccc2[nH]c(-c3ccc(CNC(=O)CCOCCOCCOCCOCCNC(=O)CCc4ccc5n4[B-](F)(F)[N+]4=C(c6ccc[nH]6)C=CC4=C5)cc3)c(CCNC(C)=O)c2n1` [AzomelatoninICO9-2-NB590], for which the “NanoBRET Fold Response” value on CCKBR (0.1μM tracer) is 1.13; at CCKBR (1μM tracer), 1.16; on HTR5A (0.1μM tracer), 1.02; at HTR5A (1μM tracer), 0.84.

For the compound `CCCn1c(=O)c2[nH]c(-c3ccc(OCC(=O)NCCNC(=O)CCOCCNC(=O)c4ccc(CNC(=O)CCc5ccc6n5[B-](F)(F)[N+]5=C(c7ccc[nH]7)C=CC5=C6)cc4)cc3)nc2n(CCC)c1=O` [XAC-3-NB590], the “NanoBRET Fold Response” value came out at 1.02 on CCKBR (CCKBR, tracer 0.1μM); 0.85 at CCKBR (CCKBR, tracer 1μM); 1.12 on HTR5A (HTR5A, tracer 0.1μM); 0.97 at HTR5A (HTR5A, tracer 1μM).

With `COc1ccccc1N1CCN(CCCCN2C(=O)c3ccc(CNC(=O)CCOCCNC(=O)c4ccc(CNC(=O)CCc5ccc6n5[B-](F)(F)[N+]5=C(c7ccc[nH]7)C=CC5=C6)cc4)cc3C2=O)CC1` [NAN-190-3-NB590], the “NanoBRET Fold Response” value turned out to be 0.98 at CCKBR (CCKBR, tracer 0.1μM); 0.94 on CCKBR (CCKBR, tracer 1μM); 0.99 at HTR5A (HTR5A, tracer 0.1μM); 1.06 on HTR5A (HTR5A, tracer 1μM).

As for `CN(CCC=C1c2ccccc2CCc2ccccc21)C(=O)CCOCCOCCOCCOCCNC(=O)CCc1ccc2n1[B-](F)(F)[N+]1=C(c3ccc[nH]3)C=CC1=C2` [Amitriptyline-e-2-NB590], the “NanoBRET Fold Response” value at CCKBR (tracer at 1μM) was determined as 1.02; on HTR5A (tracer at 1μM) it was 1.05.

Turning to `O=C(CCc1ccc2n1[B-](F)(F)[N+]1=C(c3ccc[nH]3)C=CC1=C2)NCc1ccc(C(=O)NCCOCCOCCNCC(O)COc2cccc3ccccc23)cc1` (stereo not shown) [Propranolol-3-NB590], the “NanoBRET Fold Response” value on CCKBR (CCKBR, 0.1μM) came to 1.05; at CCKBR (CCKBR, 1μM) it was 0.91; on HTR5A (HTR5A, 0.1μM) it was 1.10; on HTR5A (HTR5A, 1μM) it was 1.03.

As to `COc1ccc2c(n1)c(CCNC(C)=O)cn2CCNC(=O)CCc1ccc2n1[B-](F)(F)[N+]1=C(c3ccc[nH]3)C=CC1=C2` [Azamelatonin-1-NB590], the “NanoBRET Fold Response” value at CCKBR (0.1μM tracer) is recorded as 1.01; at CCKBR (1μM tracer) it was 1.02; on HTR5A (0.1μM tracer) it was 0.89; at HTR5A (1μM tracer), 0.89.

As to `O=C(CCOCCOCCOCCOCCNC(=O)CCc1ccc2n1[B-](F)(F)[N+]1=C(c3ccc[nH]3)C=CC1=C2)NCCCN1CCN(C2=Nc3ccccc3Oc3ccc(Cl)cc32)CC1` [Loxapine-a-2-NB590], the “NanoBRET Fold Response” value is 1.05 on CCKBR (CCKBR, tracer 0.1μM); 0.98 on CCKBR (CCKBR, tracer 1μM); 0.97 at HTR5A (HTR5A, tracer 0.1μM); 1.32 on HTR5A (HTR5A, tracer 1μM).

Take `N#CN/C(=N\CCNC(=O)c1ccc(N)cc1)NCCCOc1cccc(CN2CCCCC2)c1` [Aminopotentidine (unmodified)]: the “NanoBRET Fold Response” value at HTR5A (HTR5A, other tracers/Aminopotentidine (unmodified), 0.1μM) was determined as 1.11; on HTR5A (HTR5A, other tracers/Aminopotentidine (unmodified), 1μM), 1.09.

As to `COc1ccccc1N1CCN(CCCCN2C(=O)c3ccc(CNC(=O)CCOCCOCCOCCOCCNC(=O)CCc4ccc5n4[B-](F)(F)[N+]4=C(c6ccc[nH]6)C=CC4=C5)cc3C2=O)CC1` [NAN-190-2-NB590], the “NanoBRET Fold Response” value on CCKBR (CCKBR, tracer 0.1μM) amounted to 1.00; on CCKBR (CCKBR, tracer 1μM), 0.97; at HTR5A (HTR5A, tracer 0.1μM), 0.96; at HTR5A (HTR5A, tracer 1μM) it was 1.13.

Take `CC(C)N(CC[C@H](c1ccccc1)c1cc(CCNC(=O)c2ccc(CNC(=O)CCc3ccc4n3[B-](F)(F)[N+]3=C(c5ccc[nH]5)C=CC3=C4)cc2)ccc1O)C(C)C` [Tolterodine-BZ-NB590]: the “NanoBRET Fold Response” value is on record as 0.97 on CCKBR (CCKBR, tracer 0.1μM); 1.06 on CCKBR (CCKBR, tracer 1μM); 0.98 on HTR5A (HTR5A, tracer 0.1μM); 1.03 on HTR5A (HTR5A, tracer 1μM).

For `O=C(CCc1ccc2n1[B-](F)(F)[N+]1=C(c3ccc[nH]3)C=CC1=C2)NCCOCCOCCNC(=O)OCCOCCN1CCN(C2=Nc3ccccc3Sc3ccccc32)CC1` [Quetiapine-a-2-NB590], the “NanoBRET Fold Response” value on CCKBR (CCKBR, tracer 0.1μM) worked out at 1.05; at CCKBR (CCKBR, tracer 1μM), 0.93; at HTR5A (HTR5A, tracer 0.1μM), 0.96; at HTR5A (HTR5A, tracer 1μM), 0.99.

`CN1CCN(C2=Nc3cc(Cl)ccc3Nc3ccc(CNC(=O)CCOCCOCCOCCOCCNC(=O)CCc4ccc5n4[B-](F)(F)[N+]4=C(c6ccc[nH]6)C=CC4=C5)cc32)CC1` [Clozapine-b-2-NB590]: the “NanoBRET Fold Response” value at CCKBR (CCKBR, 0.1μM tracer) is 0.99; at CCKBR (CCKBR, 1μM tracer) it was 1.07; on HTR5A (HTR5A, 0.1μM tracer) it was 1.07; on HTR5A (HTR5A, 1μM tracer), 1.35.

Take `CC(C)N(CC[C@H](c1ccccc1)c1cc(CCNC(=O)CCOCCOCCOCCOCCNC(=O)CCc2ccc3n2[B-](F)(F)[N+]2=C(c4ccc[nH]4)C=CC2=C3)ccc1O)C(C)C` [Tolterodine-2-NB590]: the “NanoBRET Fold Response” value at CCKBR (CCKBR, tracer 0.1μM) is 0.97; on CCKBR (CCKBR, tracer 1μM), 1.07; on HTR5A (HTR5A, tracer 0.1μM) it was 1.07; at HTR5A (HTR5A, tracer 1μM) it was 1.05.

Source of the values: publication PMC8151276, “An Integrated Approach toward NanoBRET Tracers for Analysis of GPCR Ligand Engagement” (Molecules, 2021).
